Experimental data published in ChEMBL document CHEMBL3421561, “CNS drug design: balancing physicochemical properties for optimal brain exposure” (J Med Chem, 2015).

Assays:
[1] = system: Rattus norvegicus; assay: AUC (0 to 1 hr) in rat at 0.5 mg/kg, iv; assay type: ADME, organism-based, Plasma; design: time < 1 hr, dose 0.5 mg/kg, route intravenous; details: in vivo
[2] = molecular target: Substance-P receptor (Homo sapiens, UniProt P25103); assay: Antagonist activity at NK1 receptor (unknown origin)
Sequence of Substance-P receptor (P25103 whole entry): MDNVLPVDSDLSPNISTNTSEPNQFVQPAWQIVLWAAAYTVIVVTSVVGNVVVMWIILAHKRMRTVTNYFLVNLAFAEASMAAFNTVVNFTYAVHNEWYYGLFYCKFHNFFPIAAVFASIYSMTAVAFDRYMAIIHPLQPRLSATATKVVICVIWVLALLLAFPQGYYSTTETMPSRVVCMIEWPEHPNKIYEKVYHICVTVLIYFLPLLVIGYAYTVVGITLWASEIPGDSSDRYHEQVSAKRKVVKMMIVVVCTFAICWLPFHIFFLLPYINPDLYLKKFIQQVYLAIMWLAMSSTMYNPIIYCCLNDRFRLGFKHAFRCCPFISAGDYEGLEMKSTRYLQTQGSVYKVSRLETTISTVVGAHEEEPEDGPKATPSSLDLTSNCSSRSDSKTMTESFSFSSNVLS

[3] = Ratio of drug uptake in brain to plasma in rat; assay type: ADME; details: brain and plasma
[4] = system: Gerbillinae; assay: Antagonist activity at NK1 receptor in substance P-induced gerbil foot tapping model
[5] = Apparent permeability of the compound; details: not told
[6] = molecular target: Mu-type opioid receptor (Homo sapiens, UniProt P35372); assay: biochemical; assay type: cell-based, 293T
Sequence of Mu-type opioid receptor (P35372 whole entry): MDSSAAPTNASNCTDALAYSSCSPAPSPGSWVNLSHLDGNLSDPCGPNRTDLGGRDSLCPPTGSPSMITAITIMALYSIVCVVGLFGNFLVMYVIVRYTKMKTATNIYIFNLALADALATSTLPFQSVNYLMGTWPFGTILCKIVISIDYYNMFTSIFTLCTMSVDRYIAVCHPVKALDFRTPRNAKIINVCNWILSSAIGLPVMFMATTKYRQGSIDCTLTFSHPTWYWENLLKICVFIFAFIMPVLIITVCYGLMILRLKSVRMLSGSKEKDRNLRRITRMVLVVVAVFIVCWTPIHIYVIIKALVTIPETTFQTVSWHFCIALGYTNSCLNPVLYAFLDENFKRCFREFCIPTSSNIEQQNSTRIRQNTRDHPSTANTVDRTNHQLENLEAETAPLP
Description: Displacement of [3H]naloxone from MOR (unknown origin) expressed in human 293T cells

[7] = Ratio of unbound drug in brain to plasma in rat; assay type: ADME; details: brain and plasma, read-out: K(p,uu,brain)
[8] = system: Brain; assay: AUC in rat brain at 10 mg/kg, sc; assay type: ADME, organism-based; design: dose 10 mg/kg, route subcutaneous; details: in vivo
[9] = AUC in rat interstitial fluid at 10 mg/kg, sc by transcortical microdialysis; assay type: ADME, organism-based; design: dose 10 mg/kg, route subcutaneous; details: in vivo
[10] = Ratio of unbound drug in brain to plasma in mouse; assay type: ADME, organism-based; details: brain and plasma, read-out: K(p,uu,brain)
[11] = Half life in dog; assay type: ADME, organism-based, Canis lupus familiaris; details: in vivo
[12] = Oral bioavailability in dog; assay type: ADME, organism-based, Canis lupus familiaris; details: in vivo
[13] = Solubility of the compound; assay type: physicochemical

Row | Compound | AUC [1] [ng·h/g] | Kp [3] | MED [4] [mg/kg] | AUC [8] [µM/min] | AUC [9] [µM/min] | other results
1 | C[C@H](NC(=O)[C@](Cc1c[nH]c2ccccc12)(CN(C)C)NC(=O)OCc1cc2ccccc2o1)c1ccccc1 | 50 | 6 | 1 |  |  | IC50 [2]: 0.0005 µM
2 | CC(C)(C)c1ccc(C(O)CCCN2CCC(C(O)(c3ccccc3)c3ccccc3)CC2)cc1 (centres undefined) [TERFENADINE] |  |  |  |  |  | Papp [5]: 28.5 ×10⁻⁶ cm/s
3 | CN1CC[C@]23c4c5ccc(O)c4O[C@H]2[C@@H](O[C@@H]2O[C@H](C(=O)O)[C@@H](O)[C@H](O)[C@H]2O)C=C[C@H]3[C@H]1C5 [MORPHINE GLUCURONIDE] |  | 0.05 |  | 42 | 336 | Ki [6]: 0.063 µM; Kp uu [7]: 0.56
4 | COc1ccc(C(CN(C)C)C2(O)CCCCC2)cc1 (centres undefined) [VENLAFAXINE] |  |  |  |  |  | Kp uu [10]: 0.98
5 | CN1CC[C@]23c4c5ccc(O)c4O[C@H]2[C@@H](O)C=C[C@H]3[C@H]1C5 [MORPHINE] |  |  |  | 186 | 79 | 
6 | C[C@H](NC(=O)[C@@](C)(Cc1c[nH]c2ccccc12)NC(=O)OCc1cc2ccccc2o1)c1ccccc1 | 120 | 0.4 | 30 |  |  | half-life [11]: > 6 h; bioavailability [12]: 60%; solubility [13]: < 2 µg/mL
